The source of these data is US20070219186A1, “Pyrazolo[1,5-A]pyrimidine derivatives and methods of use thereof” (priority 2006, published 2007).

For the test, the target named is T1, human B-Raf (Homo sapiens, UniProt P15056).
T1 construct: Flag; GST; made in house; host or cells: Sf9 insect cells (B-Raf); E. coli (MEK1-GST)
Briefly: B-Raf Kinase to MEK1 ELISA. It counts as biochemical. Conditions: for inhibition at 10 µM: read-out: % Inhib./10 uM. The procedure, abridged: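 Read-out is a DELFIA europium signal from phospho-MEK1 (Ser217/221) antibody after capture of GST-MEK1 (50 nM final) on anti-GST plates. Phosphorylation comes from Sf9-expressed Flag/GST human B-Raf (~20 ng) with ATP/MgCl2, 60 min RT, pH 7.2 MOPS.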
Background: In an ELISA, binding on a coated surface is turned into a signal by an enzyme label.

The mark [1] stands for this setting: median, cpd concentrations from 10 μM to 30 nM in half log dilutions, read-out: Median IC50.

Read-outs that look alike come from different tables or passages of the source.

T1 sequence (P15056 whole entry): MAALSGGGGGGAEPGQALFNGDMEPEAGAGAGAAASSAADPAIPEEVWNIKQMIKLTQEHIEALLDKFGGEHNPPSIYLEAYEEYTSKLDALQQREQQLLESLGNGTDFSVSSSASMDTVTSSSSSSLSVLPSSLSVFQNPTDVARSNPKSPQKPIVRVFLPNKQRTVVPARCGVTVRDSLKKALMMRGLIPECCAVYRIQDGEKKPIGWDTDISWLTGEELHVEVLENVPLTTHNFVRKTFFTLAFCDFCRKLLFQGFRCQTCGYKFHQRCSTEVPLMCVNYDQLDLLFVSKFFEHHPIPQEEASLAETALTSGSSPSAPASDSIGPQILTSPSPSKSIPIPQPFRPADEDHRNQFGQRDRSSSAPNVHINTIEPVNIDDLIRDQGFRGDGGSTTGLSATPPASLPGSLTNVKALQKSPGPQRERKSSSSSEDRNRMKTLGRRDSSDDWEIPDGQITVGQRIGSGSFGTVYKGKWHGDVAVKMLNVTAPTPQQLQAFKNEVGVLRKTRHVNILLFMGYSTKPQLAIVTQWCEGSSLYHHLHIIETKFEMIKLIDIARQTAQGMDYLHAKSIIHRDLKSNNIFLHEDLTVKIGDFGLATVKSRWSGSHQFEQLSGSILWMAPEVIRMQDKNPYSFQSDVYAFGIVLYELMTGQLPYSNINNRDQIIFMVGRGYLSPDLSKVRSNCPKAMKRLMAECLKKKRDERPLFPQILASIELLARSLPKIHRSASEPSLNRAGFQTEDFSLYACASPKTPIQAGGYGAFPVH

As a reminder, the IC50 is the concentration needed to halve the response being measured. In the case of `COC(=O)c1cccc(-c2cc3nccc(-c4cccc(NC(=O)c5cccc(C(F)(F)F)c5)c4)n3n2)c1` [Example 141, methyl 3-[7-(3-{[3-(trifluoromethyl)benzoyl]amino}phenyl)pyrazolo[1,5-a]pyrimidin-2-yl]benzoate], the inhibition at 10 µM was determined as 32%. Further, the IC50 under setting [1] is more than 10000 nM.
Take `CCOC(=O)c1cnn2c(-c3cccc(NC(=O)Nc4cccc(Cl)c4)c3)ccnc12` [Example 80, Ethyl 7-[3-({[(3-chlorophenyl)amino]carbonyl}amino)phenyl]-pyrazolo[1,5-a]pyrimidine-3-carboxylate]: the inhibition at 10 µM worked out at 47%.
For `CCOC(=O)c1cnn2c(-c3cccc(NC(=O)c4cnccn4)c3)ccnc12` [Example 214, ethyl7-{3-[(pyrazin-2-ylcarbonyl)amino]phenyl}pyrazolo[1,5-a]pyrimidine-3-carboxylate], the inhibition at 10 µM came to 8%. The IC50 under setting [1] is more than 10000 nM.
Consider `O=C(Nc1cccc(-c2ccnc3cc(-c4ccnc(NCCN5CCC(O)CC5)c4)nn23)c1)c1cccc(C(F)(F)F)c1` [Example 263, N-{3-[2-(2-{[2-(4-hydroxypiperidin-1-yl)ethyl]amino}pyridin-4-yl)pyrazolo[1,5-a]pyrimidin-7-yl]phenyl}-3-(trifluoromethyl)benzamide], for which the IC50 came to 65.8 nM. Further, the “% Inhib./10 uM” value (single point assay, 10 uM) was 98%.
On to `O=C(Nc1cccc(-c2ccnc3cc(N4CCOCC4)nn23)c1)Nc1ccc(Cl)c(Cl)c1` [Example 201, N-(3,4-dichlorophenyl)-N′-[3-(2-morpholin-4-ylpyrazolo[1,5-a]pyrimidin-7-yl)phenyl]urea], for which the inhibition at 10 µM was 96%. Besides, under setting [1], the IC50 stood at 100 nM.
Regarding `Cc1ccc(C(=O)Nc2cccc(-c3ccnc4cc(-c5ccccc5)nn34)c2)cc1C(F)(F)F` [Example 119, 4-methyl-N-[3-(2-phenylpyrazolo[1,5-a]pyrimidin-7-yl)phenyl]-3-(trifluoromethyl)benzamide], the inhibition at 10 µM came to 29%. For the same compound, the IC50 under setting [1] was more than 10000 nM.
For `CCOC(=O)c1cnn2c(-c3cccc(NC(=O)Nc4nc5ccc(OC)cc5s4)c3)ccnc12` [Example 244, ethyl7-[3-({[(6-methoxy-1,3-benzothiazol-2-yl)amino]carbonyl}amino)phenyl]pyrazolo[1,5-a]pyrimidine-3-carboxylate], the inhibition at 10 µM was found to be 24%. Further, the IC50 under setting [1] was more than 10000 nM.
Turning to `CCOC(=O)c1cnn2c(-c3cccc(NC(=O)c4ccc(C)s4)c3)ccnc12` [Example 221, ethyl7-(3-{[(5-methyl-2-thienyl)carbonyl]amino}phenyl)pyrazolo[1,5-a]pyrimidine-3-carboxylate], the inhibition at 10 µM amounted to 65%. Also, the 50% inhibitory concentration (IC50) under setting [1] turned out to be 9700 nM.
The corresponding values for `CCOC(=O)c1cnn2c(-c3cccc(NC(=O)Nc4ccc(Cl)cc4Cl)c3)ccnc12` [Example 14, ethyl 7-[3-({[(2,4-dichlorophenyl)amino]carbonyl}amino)phenyl]pyrazolo[1,5-a]pyrimidine-3-carboxylate] are 0% and more than 10000 nM.
The corresponding values for `CCOC(=O)c1cnn2c(-c3cccc(NC(=O)c4cnc(C)cn4)c3)ccnc12` [Example 216, Ethyl7-(3-{[(5-methylpyrazin-2-yl)carbonyl]amino}phenyl)pyrazolo[1,5-a]pyrimidine-3-carboxylate] are 3% and more than 10000 nM.
The like results for `CCOC(=O)c1cnn2c(-c3cccc(NC(=O)Nc4cc(OC)cc(C(F)(F)F)c4)c3)ccnc12` [Example 77, ethyl 7-{3-[({[3-methoxy-5-(trifluoromethyl)phenyl]amino}carbonyl)amino]phenyl}pyrazolo[1,5-a]pyrimidine-3-carboxylate] were, in that order, 72% and 990 nM.
`O=C(Nc1cccc(-c2ccnc3cc(-c4ccccn4)nn23)c1)c1cccc(C(F)(F)F)c1` [Example 111, N-[3-(2-pyridin-2-ylpyrazolo[1,5-a]pyrimidin-7-yl)phenyl]-3-(trifluoromethyl)benzamide]: the inhibition at 10 µM came to 24%. Also, the 50% inhibitory concentration (IC50) under setting [1] was more than 3000 nM.
With `O=C(Nc1cccc(-c2ccnc3c(C(=O)NCCN4CCCC4)cnn23)c1)c1cccc(C(F)(F)F)c1` [Example 48, N-(2-pyrrolidin-1-ylethyl)-7-(3-{[3-(trifluoromethyl)benzoyl]amino}phenyl)pyrazolo[1,5-a]pyrimidine-3-carboxamide], the inhibition at 10 µM is 43%.
As to `CCOC(=O)c1cc2nccc(-c3cccc(NC(=O)c4cccc(C(F)(F)F)c4)c3)n2n1` [Example 185, ethyl 7-(3-{[3-(trifluoromethyl)benzoyl]amino}phenyl)pyrazolo[1,5-a]pyrimidine-2-carboxylate], the inhibition at 10 µM was found to be 6%. Moreover, the IC50 under setting [1] was more than 10000 nM.
The corresponding values for `O=C(Nc1cccc(-c2ccnc3c(Br)cnn23)c1)Nc1ccc(Cl)c(C(F)(F)F)c1` [Example 143, N-[3-(3-bromopyrazolo[1,5-a]pyrimidin-7-yl)phenyl]-N′-[4-chloro-3-(trifluoromethyl)phenyl]urea] are 92% and 140 nM.
The corresponding values for `Cc1ccc(C(=O)Nc2cccc(-c3ccnc4c(-c5ccccn5)cnn34)c2)cc1C(F)(F)F` [Example 65, 4-methyl-N-[3-(3-pyridin-2-ylpyrazolo[1,5-a]pyrimidin-7-yl)phenyl]-3-(trifluoromethyl)benzamide] are 30% and more than 10000 nM.
For the compound `O=C(Nc1cccc(-c2ccnc3cc(-c4ccnc(NCCCN5CCCCC5)c4)nn23)c1)c1cccc(C(F)(F)F)c1` [Example 259, N-[3-(2-{2-[(3-piperidin-1-ylpropyl)amino]pyridin-4-yl}pyrazolo[1,5-a]pyrimidin-7-yl)phenyl]-3-(trifluoromethyl)benzamide], the inhibition at 10 µM is 99%. Moreover, the IC50 under setting [1] turned out to be 91.4 nM.
Turning to `CCOC(=O)c1cnn2c(-c3cccc(NC(=O)Nc4ccc(SC(F)(F)F)cc4)c3)ccnc12` [Example 24, ethyl 7-(3-{[({4-[(trifluoromethyl)thio]phenyl}amino)carbonyl]amino}phenyl)pyrazolo[1,5-a]pyrimidine-3-carboxylate], the inhibition at 10 µM was determined as 11%. Moreover, the IC50 under setting [1] is more than 10000 nM.
Take `CCOC(=O)c1cnn2c(-c3ccc(OCc4ccccc4)c(NC(=O)c4ccc(C)c(C(F)(F)F)c4)c3)ccnc12` [Example 108, ethyl 7-(4-(benzyloxy)-3-{[4-methyl-3-(trifluoromethyl)benzoyl]amino}phenyl)pyrazolo[1,5-a]pyrimidine-3-carboxylate]: the inhibition at 10 µM came to 20%. The IC50 under setting [1] was more than 10000 nM.
In the case of `O=C(Nc1cccc(-c2ccnc3c(C(=O)NCCCn4ccnc4)cnn23)c1)c1cccc(C(F)(F)F)c1` [Example 55, N-[3-(1H-imidazol-1-yl)propyl]-7-(3-{[3-(trifluoromethyl)benzoyl]amino}phenyl)pyrazolo[1,5-a]pyrimidine-3-carboxamide], the inhibition at 10 µM turned out to be 70%. Besides, under setting [1], the IC50 amounted to 2100 nM.
The corresponding values for `O=C(Cc1nnn[nH]1)Nc1cccc(-c2cnn3c(-c4cccc(NC(=O)c5cccc(C(F)(F)F)c5)c4)ccnc23)c1` [Example 256, N-[3-(3-{3-[(1H-tetrazol-5-ylacetyl)amino]phenyl}pyrazolo[1,5-a]pyrimidin-7-yl)phenyl]-3-(trifluoromethyl)benzamide] are 97% and 122 nM.
